Among the test systems are M14 melanoma; UO-31 renal; U251 CNS; IGROV1 ovarian; SK-MEL-28 melanoma; SN12C renal; HT29 colon; SW-620 colon; K-562 leukemia; EKVX NSCLC.
What all share (assay): NCI tumour cell line growth inhibition, 48 h

SMILES strings stand for the structures.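 Assay format: 96-well plates, 48-hour exposure. GI50: concentration for 50% inhibition of growth. TGI marks complete inhibition of growth.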

As to `CC(=O)[O-].CC(=O)[O-].[NH2-].[Pt+2].c1ccc2cnccc2c1`, the GI50 with M14 melanoma was 59.1 µM; in the experiment with UO-31 renal, 22.9 µM; in the experiment with U251 CNS, 6.26 µM; with IGROV1 ovarian it was 24.6 µM; in the experiment on SK-MEL-28 melanoma, 52.6 µM; in the experiment on SN12C renal, 28.6 µM. Further, the GI50 in the experiment on HT29 colon was 24.5 µM; with SW-620 colon it was 16.2 µM; in the experiment with K-562 leukemia, 15.6 µM. The TGI is above 100 µM in the experiment with M14 melanoma; 97.5 µM in the experiment with UO-31 renal; 20.3 µM in the experiment on U251 CNS; above 100 µM in the experiment with IGROV1 ovarian; above 100 µM in the experiment with SK-MEL-28 melanoma; above 100 µM in the experiment on SN12C renal. The figures for the TGI in the experiment with HT29 colon, in the experiment with SW-620 colon and in the experiment with K-562 leukemia were above 100 µM, 38.3 µM and 51.8 µM, respectively.

For the molecule `COc1ccc2c3c(c(=O)n(C)c2c1OC)C=CC(C)(C)O3`, the TGI is above 100 µM in the experiment with M14 melanoma; 63.3 µM in the experiment with UO-31 renal; above 100 µM in the experiment with U251 CNS; above 100 µM with IGROV1 ovarian; above 100 µM in the experiment with SK-MEL-28 melanoma; 54.8 µM in the experiment on SN12C renal. The TGI in the experiment on EKVX NSCLC was above 100 µM; in the experiment on HT29 colon, 72.7 µM; with SW-620 colon, above 100 µM.

With `C[C@@H]1COCCN1c1cc(C2(S(C)(=N)=O)CC2)nc(-c2ccnc3[nH]ccc23)n1` (stereo partly drawn), the GI50 is 2.55 µM in the experiment on UO-31 renal; 5.46 µM with U251 CNS; 3.63 µM in the experiment on IGROV1 ovarian; 5.59 µM in the experiment with SK-MEL-28 melanoma; 4.77 µM in the experiment on SN12C renal; 6.95 µM in the experiment on HT29 colon. The GI50 was 8.36 µM in the experiment with SW-620 colon and 3.22 µM with K-562 leukemia. In addition, the TGI in the experiment with UO-31 renal was 22.8 µM; in the experiment with U251 CNS, 63.9 µM; in the experiment with IGROV1 ovarian, 63.1 µM; in the experiment with SK-MEL-28 melanoma, 25.8 µM; with SN12C renal it was 89.6 µM; with HT29 colon it was above 100 µM. Further, the TGI in the experiment with SW-620 colon is 95.1 µM; in the experiment on K-562 leukemia, above 100 µM.

As to `NNC(=O)CCC(=O)NC1C2CC3CC(C2)CC1C3` (stereo not drawn), the TGI in the experiment with M14 melanoma, with UO-31 renal, in the experiment with U251 CNS, in the experiment on IGROV1 ovarian, with SK-MEL-28 melanoma and in the experiment with SN12C renal was above 100 µM throughout. Moreover, the TGI in the experiment on HT29 colon, in the experiment with SW-620 colon and in the experiment with K-562 leukemia was above 100 µM throughout.

As for `Cc1ccc(NC(=O)/C(=N\Nc2ccc([N+](=O)[O-])cc2[N+](=O)[O-])C2C(=O)NC(=O)NC2=O)cc1`, the TGI in the experiment on M14 melanoma, in the experiment on UO-31 renal, in the experiment on U251 CNS, with IGROV1 ovarian, with SK-MEL-28 melanoma and in the experiment on SN12C renal was above 100 µM in each case. The TGI in the experiment on HT29 colon, with SW-620 colon and in the experiment on K-562 leukemia was above 100 µM throughout.

In the case of `NC(C(=O)[O-])C(=O)[O-].NC1CCCCC1N.[Pt+4]`, the GI50 in the experiment on M14 melanoma is 20.2 µM; with UO-31 renal it was 52.7 µM; in the experiment with U251 CNS it was 4.63 µM; in the experiment with IGROV1 ovarian, 16.3 µM; in the experiment with SK-MEL-28 melanoma it was 12.7 µM; in the experiment with SN12C renal it was 4.5 µM. The GI50 is 2.65 µM in the experiment on HT29 colon, 1.75 µM in the experiment with SW-620 colon and 5.8 µM in the experiment with K-562 leukemia. Also, the TGI in the experiment with M14 melanoma, with UO-31 renal, in the experiment on U251 CNS, in the experiment on IGROV1 ovarian, in the experiment on SK-MEL-28 melanoma and with SN12C renal was above 100 µM throughout. For the same molecule, the TGI in the experiment with HT29 colon, with SW-620 colon and in the experiment with K-562 leukemia was above 100 µM throughout.

With `CC[C@H](CC#N)OC(=O)N[C@@H](C)c1cccc(NC(=O)Nc2ccc(-c3cnco3)c(OC)c2)c1`, the GI50 is 0.0753 µM in the experiment on M14 melanoma; 0.446 µM in the experiment with UO-31 renal; 0.0406 µM in the experiment on U251 CNS; 0.0514 µM in the experiment with IGROV1 ovarian; 0.0505 µM in the experiment on SK-MEL-28 melanoma; 0.111 µM in the experiment with SN12C renal. The GI50 in the experiment with HT29 colon is below 0.0199 µM; in the experiment with SW-620 colon it was 0.0229 µM; in the experiment with K-562 leukemia, 0.0263 µM. The TGI in the experiment on M14 melanoma is 30.5 µM; in the experiment with UO-31 renal, 10.3 µM; in the experiment on U251 CNS, 44.8 µM; in the experiment on IGROV1 ovarian, 24.2 µM; in the experiment with SK-MEL-28 melanoma it was 21.8 µM; in the experiment on SN12C renal, 79.3 µM. In addition, the TGI with HT29 colon is 21.7 µM; with SW-620 colon it was 40.6 µM; in the experiment with K-562 leukemia it was above 52.6 µM.

As for `CCCCCCCCCCCC[n+]1ccc(CCCCCCCCC)cc1`, in the experiment with UO-31 renal, the GI50 is 1.27 µM and the TGI is 2.59 µM. In addition, in the experiment on SK-MEL-28 melanoma, the GI50 is 1.31 µM and the TGI was found to be 2.86 µM.

As to `COc1cccc(C(=O)C2C(=O)N(C)CCc3ccccc32)c1OC` (stereo not drawn), the TGI in the experiment on M14 melanoma, in the experiment on UO-31 renal, in the experiment with U251 CNS, in the experiment with IGROV1 ovarian, in the experiment with SK-MEL-28 melanoma and in the experiment with SN12C renal was above 100 µM each time. The TGI in the experiment on HT29 colon, in the experiment on SW-620 colon and in the experiment on K-562 leukemia was above 100 µM throughout.

Regarding `CCCCN(Cc1ccc(F)cc1)c1ccc(CO)c(Cl)c1`, the GI50 with M14 melanoma is 17.5 µM; in the experiment with UO-31 renal, 10.6 µM; with U251 CNS, 4.57 µM; in the experiment on IGROV1 ovarian, 0.677 µM; with SK-MEL-28 melanoma, 14.8 µM; with SN12C renal it was 12.5 µM. In addition, the GI50 with HT29 colon is 13.7 µM; with SW-620 colon, 6.11 µM; with K-562 leukemia it was 6.76 µM. The TGI in the experiment on M14 melanoma turned out to be 34.6 µM; with UO-31 renal, 23.6 µM; in the experiment on U251 CNS, 18.9 µM; in the experiment with IGROV1 ovarian it was 3.49 µM; with SK-MEL-28 melanoma, 28.4 µM; with SN12C renal, 25.3 µM. For the same molecule, the TGI amounted to 29.1 µM with HT29 colon, 20.7 µM with SW-620 colon and 29.6 µM with K-562 leukemia.

As to `COc1cc[nH]c1/C=C1\C(=O)Nc2ccc(F)c(I)c21`, the GI50 with M14 melanoma, with UO-31 renal, in the experiment on U251 CNS, with IGROV1 ovarian, with SK-MEL-28 melanoma and with SN12C renal was above 25 µM each time. Moreover, the GI50 with HT29 colon, in the experiment with SW-620 colon and in the experiment with K-562 leukemia was above 25 µM in each case. Also, the TGI in the experiment on M14 melanoma, in the experiment with UO-31 renal, in the experiment with U251 CNS, with IGROV1 ovarian, in the experiment with SK-MEL-28 melanoma and in the experiment on SN12C renal was above 25 µM each time. In addition, the TGI in the experiment with HT29 colon, with SW-620 colon and in the experiment with K-562 leukemia was above 25 µM in each case.

With `Fc1ccc2[nH]c3c(NCCCN4CCOCC4)ncnc3c2c1`, the GI50 with M14 melanoma is 36 µM; in the experiment with UO-31 renal, 33 µM; in the experiment with U251 CNS it was 48.8 µM; with IGROV1 ovarian, 49.1 µM; in the experiment on SK-MEL-28 melanoma, 70.4 µM; in the experiment on SN12C renal, 77.8 µM. Besides, the GI50 was 29 µM in the experiment with HT29 colon, 40.8 µM with SW-620 colon and 26.2 µM in the experiment with K-562 leukemia. Further, the TGI in the experiment with M14 melanoma, with UO-31 renal, in the experiment on U251 CNS, in the experiment with IGROV1 ovarian, in the experiment with SK-MEL-28 melanoma and in the experiment with SN12C renal was above 100 µM in each case. The TGI in the experiment on HT29 colon, in the experiment on SW-620 colon and in the experiment on K-562 leukemia was above 100 µM each time.

Consider `CC(C)(C)c1ccc(S(=O)(=O)N[C@H]2CC[C@H]3[C@@H]4CCc5cc(OS(=O)(=O)O)ccc5[C@H]4CC[C@]23C)cc1`, for which the GI50 is 2.07 µM in the experiment on M14 melanoma; 1.8 µM in the experiment on UO-31 renal; 1.68 µM in the experiment on U251 CNS; 3.63 µM in the experiment with IGROV1 ovarian; 1.8 µM in the experiment with SK-MEL-28 melanoma; 1.81 µM in the experiment on SN12C renal. The GI50 in the experiment with HT29 colon was 2.19 µM; in the experiment with SW-620 colon it was 3.37 µM; in the experiment on K-562 leukemia it was 3.22 µM. Moreover, the TGI was determined as 4.31 µM with M14 melanoma; 4.4 µM in the experiment on UO-31 renal; 3.34 µM with U251 CNS; 10.9 µM in the experiment with IGROV1 ovarian; 3.38 µM in the experiment with SK-MEL-28 melanoma; 3.58 µM with SN12C renal. Further, the TGI in the experiment with HT29 colon is 4.57 µM; in the experiment with SW-620 colon it was 12.5 µM; with K-562 leukemia, 13.6 µM.

Regarding `CC(=O)Oc1ccc(O)c(O)c1C/C=C(\C)CC/C=C(\C)CC/C=C(\C)CCC=C(C)C`, the TGI with M14 melanoma was determined as 4.98 µM; in the experiment with UO-31 renal, 2.74 µM; in the experiment on U251 CNS it was 1.28 µM; with SK-MEL-28 melanoma it was 2.19 µM; in the experiment with SN12C renal, 0.868 µM; in the experiment with EKVX NSCLC it was 3.81 µM. Besides, the TGI in the experiment with HT29 colon was found to be 1.18 µM; in the experiment with SW-620 colon, 1.21 µM.

On to `Cn1nc(-c2ccccc2)c(C(=O)/C=C/c2ccccc2)c(N2CCOCC2)c1=O`, for which the TGI in the experiment with M14 melanoma worked out at 52.6 µM; in the experiment with UO-31 renal, 28.1 µM; in the experiment with U251 CNS, 29.4 µM; with IGROV1 ovarian, 52.9 µM; with SN12C renal, 59.2 µM; in the experiment with HT29 colon, 33 µM. The results for the TGI with SW-620 colon and with K-562 leukemia were above 100 µM and 56 µM, respectively.

Source of the values: PubChem BioAssay (NCI).
